Several values for one entry are separate records, joined by “and”; a condition that tells them apart may be missing. Identical values can stand only once. Like-named read-outs stand apart in the source and are kept apart here.
Assays:
male Swiss-Webster mice [1] = assay: Maximal electroshock (MES)-induced tonic extension seizure test; assay type: in vivo, mouse; details: for # P/# T (protected/tested): 300 mg/kg p.o.
Description: In the MES test, a substance is administered orally (p.o.) and is tested for efficacy against maximal electroshock (MES)-induced tonic extension seizures. Adult male Swiss-Webster mice (each 20-25 g of body weight) were used. The mice were housed in Association for the Assessment and Accreditation of Laboratory Animal Care-approved facilities under a constant 12-hour light/dark cycle with a constant temperature of 21° C.-23° C. and a relative humidity of 30% to 50%. All animals were permitted free access to standard laboratory chow (Prolab RMH 3000; PMI Nutrition International, LLC, Brentwood, Mo.) and water, except when removed from their home cages for testing. All mice were handled in a manner consistent with the recommendations in the National Research Council Publication Guide for the Care and Use of Laboratory Animals.
(§1) Test compounds (Compound S, Compound W, the S-enantiomer of Compound AA, the R-enantiomer of Compound AA, Compound HH, Compound JJ, and Compound MM) were dissolved in saline containing 0.5% methylcellulose. To determine time to peak effect, 300 mg/kg of each of the test compounds was suspended in 0.5% methylcellulose in saline and administered orally to a group of 20 mice. For comparative purposes, isovaleramide was also tested. At various times (0.25, 0.5, 1, 2, and 4 hours) after p.o. administration, individual mice were placed on the rotarod and tested for their ability to maintain balance on a rotating (6 rpm) 2.5-cm diameter knurled rod for 60 seconds. Mice that fell three times in this 60-second trial were considered impaired.
Following rotarod testing, the mice were tested in the maximal electroshock (MES)-induced tonic extension seizures test. For this test, a drop of electrolyte solution (0.5% butacaine sulfate in 0.9% saline) was placed on the eyes of each mouse prior to placement of corneal electrodes. The mice were restrained by gripping the loose skin on their dorsal surface and saline-coated corneal electrodes were held lightly against the two corneas. Each mouse received an electrical stimulation (50 mAmp, 50 Hz current, 0.2 sec) delivered through a silver-coated corneal electrode using an electroshock machine as originally described by Woodbury and Davenport (Arch Int. Pharmacodyn. Ther., 92:97-104, 1952). […] A tonic seizure was defined as a hindlimb extension in excess of 90 degrees from the plane of the body. Results were treated in a quantal manner. […] ED50's (the effective dose at which 50% of the mice were protected) were determined for Compounds W and HH by administering various doses (30, 100, 300 mg/kg) at the previously determined time to peak effect, as shown in Table 11.

male Swiss-Webster mice [2] = assay: Rotarod impairment test before MES testing; assay type: in vivo, mouse; details: 300 mg/kg p.o.
Description: as §1

[3] = test system: Frings audiogenic seizure-susceptible mouse; assay: Frings audiogenic seizure assay (protection against sound-induced tonic hindlimb extension); assay type: in vivo; details: for Seizure Score ± S.E.M.: score 1-5; for ED50: Mus musculus, po
Description: The anticonvulsant activity of compound S ((S)-(+)-2,2-dimethylcyclopropane-carboxamide) was tested using the Frings audiogenic seizure-susceptible mouse. […] Compound S, which is a solution at 300 mg/kg and a suspension at 600 mg/kg, was administered to the mice at the doses indicated in Tables 1-3. Compound S was obtained from Sigma-Aldrich Chemical Co. (Aldrich catalog number: 43,463-9).
At the time of testing, individual mice were placed into a round Plexiglas chamber and exposed to a sound stimulus of 110 decibels, 11 kHz, for 20 seconds. Mice not displaying tonic hindlimb extensions upon exposure to the sound stimulus were considered protected. In addition, the seizure score for each mouse was recorded as: (1) running for less than 10 seconds; (2) running for greater than 10 seconds; (3) clonic activity of limbs and/or vibrissae; (4) forelimb extension/hindlimb flexion; and (5) hindlimb extension. The average seizure score was calculated for each group of mice used in the dose-response study.
The anticonvulsant activity of compounds I, W, X, and AA was tested using the Frings audiogenic seizure-susceptible mouse model as described in Example 23. […] The therapeutic index relates to separation between therapeutic efficacy and CNS toxicity as measured by motor impairment in the rotarod performance test.

[4] = Rotarod test of motor impairment (toxicity) in the Frings study; assay type: in vivo; details: Frings, mouse, in vivo, po, rotarod, Table 4
Description: (§2) At each dose, the mice were also tested on a rotarod for testing of motor impairment (toxicity). Testing for motor impairment on the rotarod involved placing a mouse for a three-minute trial period on a one-inch diameter rod rotating at six revolutions per minute. If the mouse fell off of the rotating rod three times within the three-minute time period, the dose was considered a toxic response.
(§3) The therapeutic index relates to separation between therapeutic efficacy and CNS toxicity as measured by motor impairment in the rotarod performance test.

Frings mice = assay: as above; assay type: in vivo; details: for separation between efficacy and CNS toxicity: as measured by rotarod impairment; for Therapeutic Index: Frings, mouse, in vivo, po
Description: as §2, §3

[5] = humans, cited from earlier work
[6] = Table 5, read-out: ED50 Oral Administration

C[C@H](C(N)=O)C(C)(C)C [Compound MM]
# P/# T (protected/tested) (male Swiss-Webster mice [1]; 0.25 hours): 0/4
# P/# T (protected/tested) (male Swiss-Webster mice [1]; 0.5 hours): 1/4
# P/# T (protected/tested) (male Swiss-Webster mice [1]; 1 hour): 2/4
# P/# T (protected/tested) (male Swiss-Webster mice [1]; 2 hours): 3/4
# P/# T (protected/tested) (male Swiss-Webster mice [1]; 4 hours): 3/4
# I/# T (impaired/tested) (male Swiss-Webster mice [2]; 0.25 hours): 2/4
# I/# T (impaired/tested) (male Swiss-Webster mice [2]; 0.5 hours): 3/4
# I/# T (impaired/tested) (male Swiss-Webster mice [2]; 1 hour): 4/4
# I/# T (impaired/tested) (male Swiss-Webster mice [2]; 2 hours): 3/4
# I/# T (impaired/tested) (male Swiss-Webster mice [2]; 4 hours): 3/4

CC1(C)C[C@@H]1C(N)=O [Compound S, (S)-(+)-2,2-dimethylcyclopropanecarboxamide]
#Protected/#Tested 30 min ([3]; 30 mg/kg p.o., Table 1): no mice were protected and 0/4
#Protected/#Tested 120 min ([3]; 30 mg/kg p.o., Table 1): no mice were protected and 0/4
#Prot./#Tested at 15 min ([3]; 50 mg/kg p.o., Table 3): none of the mice were protected and 0/8
Seizure Score ± S.E.M. ([3]; 50 mg/kg p.o.): 5 ± 0
#Prot./#Tested at 15 min ([3]; 60 mg/kg p.o., Table 3): 5/8
mice protected ([3]; 60 mg/kg p.o., 15 minutes, Table 3): 62.5%
Seizure Score ± S.E.M. ([3]; 60 mg/kg p.o.): 2.1 ± 0.9
#Prot./#Tested at 15 min ([3]; 75 mg/kg p.o., Table 3): 7/8
mice protected ([3]; 75 mg/kg p.o., 15 minutes, Table 2): 75%
mice protected ([3]; 75 mg/kg p.o., 15 minutes, Table 3): 87.5%
Seizure Score ± S.E.M. ([3]; 75 mg/kg p.o.): 1.1 ± 0.6
# Prot./# Tested ([3]; 75 mg/kg p.o., ¼ hr, Table 2): ¾
# Prot./# Tested ([3]; 75 mg/kg p.o., ½ hr, Table 2): no mice were protected and 0/4
#Prot./#Tested at 15 min ([3]; 100 mg/kg p.o., Table 3): 6/8
mice protected ([3]; 100 mg/kg p.o., 15 minutes, Table 2): 75%
mice protected ([3]; 100 mg/kg p.o., 15 minutes, Table 3): 75%
#Protected/#Tested 30 min ([3]; 100 mg/kg p.o., Table 1): 3/4
mice protected ([3]; 100 mg/kg p.o., 30 minutes, Table 1): 75%
mice protected ([3]; 100 mg/kg p.o., 30 minutes, Table 2): 75%
# Prot./# Tested ([3]; 100 mg/kg p.o., 1 hr, Table 2): no mice were protected and 0/4
#Protected/#Tested 120 min ([3]; 100 mg/kg p.o., Table 1): 1/4
# Prot./# Tested ([3]; 100 mg/kg p.o., 2 hrs, Table 2): 1 mouse was protected and 1/4
mice protected ([3]; 100 mg/kg p.o., 120 minutes, Table 1): 25%
Seizure Score ± S.E.M. ([3]; 100 mg/kg p.o.): 1.6 ± 0.8
# Prot./# Tested ([3]; 100 mg/kg p.o., ¼ hr, Table 2): ¾
# Prot./# Tested ([3]; 100 mg/kg p.o., ½ hr, Table 2): 3/4
#Prot./#Tested at 15 min ([3]; 200 mg/kg p.o., Table 3): all the mice were protected and 8/8
Seizure Score ± S.E.M. ([3]; 200 mg/kg p.o.): 0.1 ± 0.1
#Protected/#Tested 30 min ([3]; 300 mg/kg p.o., Table 1): all of the tested mice were protected and 4/4
#Protected/#Tested 120 min ([3]; 300 mg/kg p.o., Table 1): all of the tested mice were protected and 4/4
average seizure score with dose ([3]; 50-200 mg/kg p.o., Table 3): generally decreased with increasing doses
ED50 ([3]; 0.25 h, p.o., tested at 15 min, 95% confidence interval 50.16-78.92, read-out: ED50 for protection against tonic extension): 64.9 mg/kg
ED50 ([3]; Table 4, read-out: ED50): 64.8 mg/kg
time at which anticonvulsant activity was observed ([3]; after oral administration): as early as 15 minutes and up to 2 hours
anticonvulsant activity (summary) ([3]; p.o.): demonstrated activity as an anticonvulsant
TD50 at 15 min [4]: > 600 mg/kg
#Toxic/#Tested 30 min (Frings mice; 30 mg/kg p.o., rotarod): 0/4
#Toxic/#Tested 120 min (Frings mice; 30 mg/kg p.o., rotarod): 0/4
#Toxic/#Tested 30 min (Frings mice; 100 mg/kg p.o., rotarod): 0/4
#Toxic/#Tested 120 min (Frings mice; 100 mg/kg p.o., rotarod): 0/4
#Toxic/#Tested 30 min (Frings mice; 300 mg/kg p.o., rotarod): 0/4
#Toxic/#Tested 120 min (Frings mice; 300 mg/kg p.o., rotarod): 0/4
#Toxic/#Tested at 15 min (Frings mice; 600 mg/kg p.o., 15 min, rotarod): 1/8
mice with a toxic response (Frings mice; 600 mg/kg p.o., 15 minutes, rotarod): 12.5%
separation between efficacy and CNS toxicity (Frings mice; p.o.): 10 fold
toxic responses on the rotarod (Frings mice; doses of Table 1 (30, 100, 300 mg/kg p.o.), 30 or 120 minutes): none of the doses produced toxic responses
separation between activity and toxicity (summary) (Frings mice; p.o.): good separation between activity and toxicity
toxicity (summary) (Frings mice; p.o., rotarod): low toxicity
# P/# T (protected/tested) (male Swiss-Webster mice [1]; 0.25 hours): 0/8
# P/# T (protected/tested) (male Swiss-Webster mice [1]; 0.5 hours): 0/8
# P/# T (protected/tested) (male Swiss-Webster mice [1]; 1 hour): 1/8
# P/# T (protected/tested) (male Swiss-Webster mice [1]; 2 hours): 0/4
# P/# T (protected/tested) (male Swiss-Webster mice [1]; 4 hours): 0/4
# I/# T (impaired/tested) (male Swiss-Webster mice [2]; 0.25 hours): 0/8
# I/# T (impaired/tested) (male Swiss-Webster mice [2]; 0.5 hours): 1/8
# I/# T (impaired/tested) (male Swiss-Webster mice [2]; 1 hour): 1/8
# I/# T (impaired/tested) (male Swiss-Webster mice [2]; 2 hours): 0/4
# I/# T (impaired/tested) (male Swiss-Webster mice [2]; 4 hours): 0/4

C[C@H]1CC[C@H](C(N)=O)CC1 [Compound W, trans-4-methylcyclohexanecarboxamide]
ED50 [3, 6]: 164 mg/kg
Therapeutic Index (Frings mice): >4-fold
ED50 Oral Administration (male Swiss-Webster mice [1]; p.o., at time to peak effect, MES): Inactive at 300 mg/kg

CC1CCC(CC(N)=O)CC1 (stereo not drawn) [Compound X, 2-(4-methylcyclohexyl)acetamide]
ED50 [3, 6]: 86.4 mg/kg
Therapeutic Index (Frings mice): >6-fold

CC(C)CC(N)=O [Isovaleramide, isovaleramide]
ED50 ([3]; Table 4, read-out: ED50): 206 mg/kg
separation between efficacy and CNS toxicity (Frings mice; p.o.): 5 fold
ED50 (male Swiss-Webster mice [1]; Mus musculus, po, at time to peak effect, MES, read-out: ED50 Oral Administration): 913 mg/kg
half-life ([5]; oral, doses ranging from 100 mg to 1600 mg): about 2.5 hours
absorption ([5]; orally administered): readily absorbed from the gastrointestinal tract
